Data reported in EP0528146A1, “N-phenylthiourea derivatives and pharmaceutical use thereof” (SANDOZ LTD., priority 1991, dated 1993).

Assays:
Conditions in all cases: in supplemented diet
Total triglycerides = Total triglycerides in blood serum of the rats of Test A; type: in vivo, Male Sprague-Dawley rats
Description: Male Sprague-Dawley rats weighing 200-225 g are housed two per cage and fed Purina Rodent Chow Special Mix 5001-S supplemented with 0.25 % cholic acid and 0.75 % cholesterol by Purina and water ad libitum for seven or eight days. Each test substance is then administered to a group of six rats in the supplemented diet for eight or twenty-one days, the test substance constituing 0.005-0.20 % of the diet. Body weight and food consumption data are recorded prior to diet administration, prior to test substance administration and at termination. Typical doses of the test substance are 4-200 mg/kg/day.
At termination, the rats are anesthetized, sacrificed by exsanguination, the blood is collected, kept on ice while clotting, centrifuged, and the serum is separated. […] Remaining sera aliquots are refrigerated and frozen for storage.
Total triglycerides are assayed on blood serum using the Boehringer Mannheim Diagnostics Reagentset^R Triglycerides-GB kit (Cat. No. 877557) modified for microtiter plate assays as follows: The reagents are prepared according to the described method. 100 µl of Working Solution 1 and 20 µl of dilute blood serum [1:1 blood serum:saline (saline is 0.15 M sodium chloride in ddH₂O)] are added to each well of a ninety-six well microtiter plate, mixed and incubated at 20°-25° for at least 5 minutes. 100 µl of working solution 2 is added to each well, and the contents are mixed and incubated at 20°-25° for at least 5 minutes and read at 490, 492 or 500 nm. The total triglyceride content in mg/dl of blood serum is calculated by comparing the absorbance with the absorbance of known samples.
Other conventional methods may be used to assay the blood serum samples for HDL-cholesterol and total triglyceride content.

HDL-cholesterol = test: Test A: In vivo HDL-cholesterol test; set-up: species or system Male Sprague-Dawley rats
Description: a) Test A: In vivo HDL-cholesterol test: Male Sprague-Dawley rats weighing 200-225 g are housed two per cage and fed Purina Rodent Chow Special Mix 5001-S supplemented with 0.25 % cholic acid and 0.75 % cholesterol by Purina and water ad libitum for seven or eight days. Each test substance is then administered to a group of six rats in the supplemented diet for eight or twenty-one days, the test substance constituing 0.005-0.20 % of the diet. Body weight and food consumption data are recorded prior to diet administration, prior to test substance administration and at termination. Typical doses of the test substance are 4-200 mg/kg/day. At termination, the rats are anesthetized, sacrificed by exsanguination, the blood is collected, kept on ice while clotting, centrifuged, and the serum is separated. […] Remaining sera aliquots are refrigerated and frozen for storage. HDL is isolated by micro-ultracentrifugation (mUC) or fast protein liquid chromatography (FPLC) techniques. The mUC method is as follows: 175 µl of the 1.06 g/ml density-adjusted blood serum is centrifuged at 42000 rpm in a Beckmann 42.2 Ti rotor at 20°C for 2.5 hours. 95 µl is fractionated from the top, leaving 80 µl in the bottom. FPLC fractionation is performed by Superose^R 6 (highly cross-linked beaded agarose having a dry bead diameter of 20-40 µm) gel permeation chromatography using the method of Kieft et al., J.Lipid Res. 32 (1991) 859-866 modified by the technique described in France et al., Laboratory Robotics and Automation 2 (1990) 155-173. The column buffer is Tris buffered saline solution [i.e. 0.05 M Tris (2-amino-2-hydroxymethyl-1,3-propanediol) and 0.15 M sodium chloride in distilled deionized water (ddH₂O)] containing 0.01 % sodium azide. 200 µl of serum is injected and forty 0.5 ml fractions are collected. Cholesterol is assayed on total, 42.2 Ti rotor bottoms and FPLC fractions using the Sigma Diagnostics kit for the enzymatic determination of cholesterol, Procedure No. 352, modified for use with ninety-six well microtiter plates. The reconstituted reagent (after addition of water) contains 300 U/l cholesterol oxidase, 100 U/l cholesterol esterase, 1000 U/l peroxidase (horseradish), 0.3 mmoles/l 4-aminoantipyrine and 30.0 mmoles/l p-hydroxybenzenesulfonate in a pH 6.5 buffer. This method uses cholesterol esterase to hydrolyze cholesterol esters to free cholesterol. Free cholesterol is oxidized to produce hydrogen peroxide that is used to form a quinoneimine dye. Since the reaction takes place quantitatively, the concentration of the dye, measured colorimetrically, is directly proportional to the cholesterol content of the sample. Calibrator, standard and sample may be diluted with saline if cholesterol concentrations cause readings outside the linear range. 20 µl of calibrator, standard or test sample is mixed with a 200 µl aliquot of reagent in a ninety-six well microtiter plate. Each mixture is incubated at 20°-25° for 25 minutes, and absorbance is determined by a colorimetric microtiter plate reader at 490, 492 or 500 nm. Top cholesterol (i.e. LDL-cholesterol) is determined by subtraction. Quality of micro-ultracentrifugation separation is determined by Corning universal agarose gel electrophoresis with Fat Red 7B stain. FPLC fraction Apo A-I content is assessed by the non-reducing SDS-PAGE method of France et al., J. Lipid Res. 30 (1989) 1997-2004. HDL-cholesterol is quantitated by assessing the cholesterol content of fractions containing Apo A-I and lacking immunoreactive Apo B protein. Other conventional methods may be used to assay the blood serum samples for HDL-cholesterol and total triglyceride content.

Apo A-I = test: Test B: Apo A-I test (rat Apo A-I ELISA on blood serum of the test animals of Test A); type: in vivo
Description: The Apo A-I blood serum level of the test animals of Test A is determined by rat Apo A-I Enzyme-Linked Immunosorbent Assay (ELISA) as follows:
1. Production and purification of rabbit anti-rat Apo A-I antibody:
Rat Apo A-I is purified from pooled rat blood serum by sequential ultracentrifugation and isolation of rat high-density lipoproteins (HDL). Following delipidation, Apo A-I is resolved from other HDL proteins by gel filtration chromatography. Antisera are raised in three rabbits (Pocono Rabbit Farms, Candensis, PA) by serial subcutaneous injections of purified rat Apo A-I by conventional immunization protocols. After one year of repeated bleedings, antisera are pooled, aliquoted and frozen at -20°. The crude antisera are defrosted, applied to a cyanogen bromide-activated Sepharose^R Cl-4B (beaded agarose having a 60-140 µm dry bead diameter) column to which purified human HDL had been covalently linked, the column is washed with saline, and the purified antibody is eluted with 1 M pH 3 glycine solution. The glycine is removed by dialysis utilizing Tris Buffered Saline Solution to obtain a concentrated solution of purified rabbit anti-rat Apo A-I antibody.
2. Buffers, reagents and standards:
• Sodium carbonate adsorption buffer: 2.25 g of sodium carbonate, 4.40 g of sodium bicarbonate and 0.15 g of sodium azide are dissolved in 1.4 l of ddH₂O, the pH is adjusted to 9.6 with sodium hydroxide, and the buffer is diluted with ddH₂O to a total volume of 1.5 l; • pH 8 0.5 M Tris: a solution of 60.55 g of Tris·HCl (2-amino-2-hydroxymethyl-1,3-propanediol·hydrochloride) in 1.0 l of ddH₂O is adjusted to pH 8.0 with 10 N sodium hydroxide solution; • secondary antibody buffer: 200 ml of pH 8 0.5 M Tris is added to a solution of 40 g of bovine serum albumin (BSA) Cohn Fraction V in 1.8 l of ddH₂O, 0.2 g of sodium azide is added, and 18.0 g of sodium chloride is added; • substrate buffer: 0.1 g of sodium azide is added with stirring to 105.1 g of diethanolamine and 500 ml of ddH₂O, 10 ml of 0.5 M magnesium chloride·hexahydrate solution is added, the pH is adjusted to 9.8 with 12 N hydrochloric acid, and the solution is diluted to a total volume of 1 l with ddH₂O; • 30 x ELISA wash buffer: 525.96 g of sodium chloride, 76.68 g of Tris, 6 g of sodium azide and 30 ml of Tween^R20 [polyoxyethylene (20) sorbitan monolaurate] are combined, the pH is adjusted to 7.3 with 12 N hydrochloric acid, and the solution is diluted to a total volume of 2 l with ddH₂O; • 1 x ELISA wash buffer: 1 volume of 30 x ELISA wash buffer is diluted with 29 volumes of ddH₂O; • sample diluent buffer: 886.34 ml of secondary antibody buffer and 113.66 ml of Tween^R20 are mixed well to obtain an 11.366 % v/v Tween^R20 solution; • standard diluent buffers: (A) 780 mi of secondary antibody buffer and 220 ml of Tween^R20 are mixed well to obtain a 22 % v/v Tween^R20 solution. (B) 890 ml of secondary antibody buffer and 110 ml of Tween^R20 are mixed well to obtain an 11 % v/v Tween^R20 solution; • rat serum pool A: this source of rat blood serum is used to construct the standard curve for each assay. It is calibrated against purified Apo A-I and contains 45 ± 2.7 mg Apo A-I/dl blood serum; • rat serum pool B: this is used as a low internal standard in each assay for monitoring assay drift and contains 40 mg Apo A-I/dl blood serum; • rat serum pool C: this is derived from rats treated with reference compound (gemfibrozil), is used as a high internal standard for monitoring assay drift and contains 70 mg Apo A-I/dl blood serum.
Purified rat Apo A-I from a frozen stock containing 942 µg/ml is diluted in sodium carbonate adsorption buffer to a final concentration of 3.7 µg/ml. Into each well of several Nunc polystyrene ninety-six well microtiter plates is added 100 µl of this solution. Apo A-I is allowed to adsorb onto the plates for 48 hours at 4°. […]

[1] = duration of treatment 8 days, dose mg/kg/day: Example 1 60, Example 2 79, Gemfibrozil 50
[2] = duration of treatment 21 days, dose mg/kg/day: Example 1 65, Example 2 73, Gemfibrozil 44

Compound | Total triglycerides level decrease (%) (Total triglycerides; [1]) | Total triglycerides level decrease (%) (Total triglycerides; [2]) | HDL-cholesterol level increase (%) (HDL-cholesterol; [1]) | HDL-cholesterol level increase (%) (HDL-cholesterol; [2]) | Apo-I level increase (%) (Apo A-I; [1]) | Apo-I level increase (%) (Apo A-I; [2])
CCCNC(=S)Nc1cc(Cl)ccc1C [Example 1, N-(5-Chloro-2-methylphenyl)-N'-propylthiourea] | 45% | 70% | 225% | 256% | 65% | 47%
Cc1ccc(Cl)cc1NC(=S)NCC(C)C [Example 2, N-(5-Chloro-2-methylphenyl)-N'-2-methylpropylthiourea] | 49% | 44% | 267% | 323% | 69% | 102%
Cc1ccc(C)c(OCCCC(C)(C)C(=O)O)c1 [Gemfibrozil, reference compound] | 35% | 43% | 100% | 106% | 50% | 44%
